Test results taken from US20230026163A1, “ANTICANCER COMPOUND AND MEDICAL USE THEREOF” (ASCENTAWITS PHARMACEUTICALS, LTD., priority 2019, published 2023).
One block for each molecule: values may come before it.

Tests used:
[1] = tested on: H460 non-small cell lung cancer; experiment: Cytotoxicity test of human tumor cell line in vitro (CTG, 72 hours); type: cell-based; conditions: for IC50: Homo sapiens, NCI-H460, H460, 72 hours exposure; for Anticancer activity compared to the compound of control 2: H460
Method: IC50 values were obtained by the following methods. The cancer cells were exposed to various concentrations of compounds for 72 hours. Following by washing steps, fresh medium was added to allow the growth of the cancer cells. The cancer cells were stained to obtain cell viability. Then, comparisons were made with the medium-only control.
Specifically, the exponentially growing cells were seeded in 96-well plates at a density of 2×10^3 cells/well, and 100 μL/well. The cells were incubated for 24 hours at 37° C., in 5% CO2, in 95% air, and 100% relative humidity. Next, 99 μL of culture medium was added. The compounds were dissolved in 100% DMSO at 200 times the desired final test concentration. Upon addition of compounds, the compounds were further diluted to 4 times the desired final concentration with a complete medium. Aliquots of 1 μL of compounds at specific concentration were added to the micro-wells containing 199 μL of medium to obtain the final compound concentrations as reported. After the compounds were added, the plates were incubated for an addition 72 hours at 37° C., in 5% CO2, in 95% air, and 100% relative humidity.
The plates to be test containing the cells were equilibrated at room temperature for 30 minutes, and 100 μL of medium per well was discarded. 100 μL of CTG reagent (CelltiterGlo Kit) was added to each well. The plates were placed in a fast-shaker to shake for 2 minutes, and placed at room temperature for 30 minutes in the dark. Chemoluminescence signal values were read with Envision instrument.

P-glycoprotein = P-glycoprotein (Homo sapiens, UniProt P08183); experiment: in vitro; conditions: for Papp A→B at 2 h / Papp B→A at 2 h / recovery at 2 h: dog; for Papp A→B at 2 h / Papp B→A at 2 h: MDCK-MDR1; for P-glycoprotein substrate (experimental conclusion): with vs without Verapamil
Sequence of P-glycoprotein (P08183 whole entry): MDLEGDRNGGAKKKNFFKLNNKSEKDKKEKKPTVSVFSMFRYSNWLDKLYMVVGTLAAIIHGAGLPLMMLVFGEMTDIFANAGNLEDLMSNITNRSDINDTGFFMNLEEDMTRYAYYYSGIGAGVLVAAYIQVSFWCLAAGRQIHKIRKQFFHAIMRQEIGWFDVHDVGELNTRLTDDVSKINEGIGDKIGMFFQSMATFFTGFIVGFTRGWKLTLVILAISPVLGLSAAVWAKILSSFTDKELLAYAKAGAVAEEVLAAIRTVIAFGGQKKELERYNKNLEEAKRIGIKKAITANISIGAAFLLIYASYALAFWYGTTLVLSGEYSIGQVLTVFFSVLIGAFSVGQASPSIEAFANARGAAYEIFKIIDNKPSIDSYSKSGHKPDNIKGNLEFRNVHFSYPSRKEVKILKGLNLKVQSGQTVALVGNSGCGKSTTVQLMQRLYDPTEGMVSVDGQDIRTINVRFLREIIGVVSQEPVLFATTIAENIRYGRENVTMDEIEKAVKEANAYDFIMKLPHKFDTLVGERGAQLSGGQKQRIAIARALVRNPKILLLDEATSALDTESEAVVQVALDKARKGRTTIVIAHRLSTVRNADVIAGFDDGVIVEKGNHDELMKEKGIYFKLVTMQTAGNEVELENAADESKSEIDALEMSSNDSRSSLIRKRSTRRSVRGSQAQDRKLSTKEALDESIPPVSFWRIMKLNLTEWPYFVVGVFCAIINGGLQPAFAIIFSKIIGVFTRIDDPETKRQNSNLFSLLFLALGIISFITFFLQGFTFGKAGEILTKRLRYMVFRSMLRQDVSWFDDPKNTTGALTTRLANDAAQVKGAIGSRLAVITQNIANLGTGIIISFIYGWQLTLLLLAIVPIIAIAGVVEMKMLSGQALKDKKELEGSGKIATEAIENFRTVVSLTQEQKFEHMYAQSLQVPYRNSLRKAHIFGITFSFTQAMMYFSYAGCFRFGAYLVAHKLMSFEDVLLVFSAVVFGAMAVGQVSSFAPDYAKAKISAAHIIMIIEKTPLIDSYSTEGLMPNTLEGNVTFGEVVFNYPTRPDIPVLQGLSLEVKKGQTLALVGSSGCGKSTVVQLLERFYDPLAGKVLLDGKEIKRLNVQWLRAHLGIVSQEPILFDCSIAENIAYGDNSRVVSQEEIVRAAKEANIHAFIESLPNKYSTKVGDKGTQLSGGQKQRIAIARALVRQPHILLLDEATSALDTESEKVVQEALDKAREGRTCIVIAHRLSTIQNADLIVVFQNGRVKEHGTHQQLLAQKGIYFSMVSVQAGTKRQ
Method: MDCKII-MDR1 cells were incubated in cell culture flasks. The incubator was set at 37° C., 5% CO2, and a guaranteed relative humidity of 95%. When the cells reached 70 to 90% confluence, the cells may be seeded to transwells.
50 μL of the cell suspensions were added to the apical chambers of each well of the 96-well transwells at a final seeding density of 5.45×10^5 cells/cm^2.
MDCKII-MDR1 cells may be fully confluent and differentiated after 4 to 8 days of incubation. At this time, the cells may be applied to penetration test. The monolayer membrane resistance was measured with a resistance meter (Millipore), and the resistance per well was recorded. After the test, the transwells were returned to the incubator.
The transwells with MDCKII-MDR1 cells were taken from the incubator. The cell monolayers were rinsed twice with buffer and incubated at 37° C. for 30 minutes.
The rate of the compounds from an apical end to a basolateral end was determined. 75 μL of the buffer containing the test sample was added to each well of the apical chambers (apical end), and 235 μL of the buffer was added to each well of the basolateral chambers (basolateral end).
The rate of the compounds transporting from the basolateral end to the apical end was determined. 75 μL of the buffer was added to the apical chambers (apical end), and 235 μL of the buffer containing the test sample was added to the basolateral chamber (basolateral end).
After the apical chambers and the basolateral chambers were combined respectively, the transwells were incubated at 37° C. for 2 hours.
After incubation, 50 μL of the sample from each well of the apical chambers and the basolateral chambers of the transwells was transferred to new sample tubes respectively. 200 μL of acetonitrile (100 nM of Alprazolam, 200 nM of Labetalol, 200 nM of caffeine, and 2 μM of Ketoprofen) as an internal standard was added to the sample tubes, vortexed for 10 minutes, and centrifuged at 3220 g for 30 minutes. 100 μL of the supernatant was taken and diluted with an equal volume of water for LC-MS/MS analysis. Each sample was incubated in triplicate.
Peak-areas were calculated from ion chromatography results. The apparent permeability coefficient (Papp, unit: cm/s×10-6) of the compounds was calculated by the following formula.
In the formula, VA was the volume of the solution at the acceptor end (Ap→B1 was 0.235 mL, and B1→Ap was 0.075 mL), Area was the membrane area (0.143 cm^2) of 96-well transwell, time was the incubation time (unit: s), [drug]acceptor referred to the drug concentration of the acceptor end after incubation, and [drug]initial,donor referred to the initial concentration of the donor end before incubation.
Efflux ratio was calculated with the following formula.
In the formula, Papp(B_A) was the apparent permeability coefficient from the basolateral end to the apical end, and Papp(A-B) was the apparent permeability coefficient from the apical end to the basolateral end.
The recovery rate was calculated with the following formula.
In the formula, VA was the solution volume of the acceptor end (unit: mL), VD was the solution volume of the donor end (unit: mL), [drug]acceptor referred to the drug concentration of the acceptor end after incubation, and [drug]initial,donor referred to the initial concentration of the donor end before incubation.

[2] = MDCK-MDR1, Recovery (%) AP-BL, Verapamil 0 μM
[3] = MDCK-MDR1, Recovery (%) AP-BL, Verapamil 100 μM
[4] = MDCK-MDR1, Recovery (%) BL-AP, Verapamil 0 μM
[5] = MDCK-MDR1, Recovery (%) BL-AP, Verapamil 100 μM

Structure (SMILES): O=[N+]([O-])c1ccc(COP(=O)(N2CC2)N2CC2)c2ccccc12 [Compound 02]
IC50 [1]: 755 nM

Structure (SMILES): O=[N+]([O-])c1ccc(C(OP(=O)(N2CC2)N2CC2)C(F)(F)F)c2ncccc12 (stereo not drawn) [Compound 16]
IC50 [1]: 34.9 nM

Structure (SMILES): CC(OP(=O)(N1CC1)N1CC1)c1ccc([N+](=O)[O-])c2cnccc12 (stereo not drawn) [Compound 14]
IC50 [1]: 3.82 nM
Papp A→B at 2 h (P-glycoprotein): 12.9 ×10⁻⁶ cm/s
Papp B→A at 2 h (P-glycoprotein): 26.3 ×10⁻⁶ cm/s
recovery at 2 h (P-glycoprotein; [2]): 91.1%
recovery at 2 h (P-glycoprotein; [3]): 80.8%
recovery at 2 h (P-glycoprotein; [4]): 104%
recovery at 2 h (P-glycoprotein; [5]): 90.8%
P-glycoprotein substrate (experimental conclusion) (P-glycoprotein): not P-glycoprotein substrates

Structure (SMILES): O=[N+]([O-])c1c(C(OP(=O)(N2CC2)N2CC2)C(F)(F)F)ccc2ccccc12 (stereo not drawn) [Compound 05]
Anticancer activity compared to the compound of control 2 [1]: obviously worse
IC50 [1]: 9020 nM

Structure (SMILES): O=[N+]([O-])c1cccc2c(COP(=O)(N3CC3)N3CC3)cccc12 [Compound 09]
IC50 [1]: 1650 nM

Papp A→B at 2 h (P-glycoprotein): 26 ×10⁻⁶ cm/s
Papp B→A at 2 h (P-glycoprotein): 18.9 ×10⁻⁶ cm/s
Structure (SMILES): COCCc1ccc(OCC(O)CNC(C)C)cc1 (stereo not drawn) [Metoprolol, reference compound]

Structure (SMILES): O=[N+]([O-])c1cccc2ccc(C(OP(=O)(N3CC3)N3CC3)C(F)(F)F)cc12 (stereo not drawn) [Compound 08]
IC50 [1]: 3840 nM

Structure (SMILES): O=[N+]([O-])c1cc(COP(=O)(N2CC2)N2CC2)cc2ccccc12 [Compound 25]
IC50 [1]: 106 nM

Structure (SMILES): CC(OP(=O)(N1CC1)N1CC1)c1ccc2ccccc2c1[N+](=O)[O-] (stereo not drawn) [Compound 04]
Anticancer activity compared to the compound of control 2 [1]: obviously worse
IC50 [1]: 9280 nM

Structure (SMILES): O=[N+]([O-])c1ccc(COP(=O)(N2CC2)N2CC2)c2ncccc12 [Compound 20]
IC50 [1]: 41.5 nM
Papp A→B at 2 h (P-glycoprotein): 33.7 ×10⁻⁶ cm/s
Papp B→A at 2 h (P-glycoprotein): 21.8 ×10⁻⁶ cm/s
recovery at 2 h (P-glycoprotein; [2]): 92.7%
recovery at 2 h (P-glycoprotein; [3]): 87.6%
recovery at 2 h (P-glycoprotein; [4]): 96.3%
recovery at 2 h (P-glycoprotein; [5]): 96.2%
P-glycoprotein substrate (experimental conclusion) (P-glycoprotein): not P-glycoprotein substrates

Structure (SMILES): CC(OP(=O)(N1CC1)N1CC1)c1ccc([N+](=O)[O-])c2cccnc12 (stereo not drawn) [Compound 12]
IC50 [1]: 35.2 nM

Structure (SMILES): O=[N+]([O-])c1ccc(COP(=O)(N2CC2)N2CC2)c2cccnc12 [Compound 22]
IC50 [1]: 200 nM

Structure (SMILES): CC(OP(=O)(N1CC1)N1CC1)c1ccc([N+](=O)[O-])c2ccncc12 (stereo not drawn) [Compound 13]
IC50 [1]: 12.9 nM

Structure (SMILES): O=[N+]([O-])c1cccc2c(C(OP(=O)(N3CC3)N3CC3)C(F)(F)F)cccc12 (stereo not drawn) [Compound 11]
IC50 [1]: 7650 nM

Structure (SMILES): O=[N+]([O-])c1ccc(C(OP(=O)(N2CC2)N2CC2)C(F)(F)F)c2cccnc12 (stereo not drawn) [Compound 19]
IC50 [1]: 311 nM

Structure (SMILES): CC(OP(=O)(N1CC1)N1CC1)c1ccc([N+](=O)[O-])c2ncccc12 (stereo not drawn) [Compound 15]
IC50 [1]: 145 nM

Structure (SMILES): CC(OP(=O)(N1CC1)N1CC1)c1ccc2cccc([N+](=O)[O-])c2c1 (stereo not drawn) [Compound 07]
IC50 [1]: 168 nM

Structure (SMILES): O=[N+]([O-])c1cccc2ccc(COP(=O)(N3CC3)N3CC3)cc12 [Compound 06]
IC50 [1]: 172 nM

Structure (SMILES): CC(OP(=O)(N1CC1)N1CC1)c1cccc2c([N+](=O)[O-])cccc12 (stereo not drawn) [Compound 10]
IC50 [1]: 692 nM

Structure (SMILES): O=[N+]([O-])c1ccc(COP(=O)(N2CC2)N2CC2)c2ccncc12 [Compound 21]
IC50 [1]: 7.17 nM

Structure (SMILES): O=[N+]([O-])c1ccc(C(OP(=O)(N2CC2)N2CC2)C(F)(F)F)c2ccncc12 (stereo not drawn) [Compound 18]
IC50 [1]: 7.88 nM

Structure (SMILES): O=[N+]([O-])c1cccc2cc(COP(=O)(N3CC3)N3CC3)ccc12 [Compound 24]
IC50 [1]: 478 nM
